This note sets out measurements from patent US20100063065A1 (Inpharmatica Limited, priority 2005, published 2010).

Bounds are passed on as bounds.

For the first test, the target named is T1, PPARδ (Homo sapiens, UniProt Q03181).
T1 construct: fused to amino acids 147-441 of PPARδ downstream of CMV promoter; expressed in transfected cells; host or cells: HEK293 cells, transiently transfected with pFACMV-PPARδ using Fugene
T1 sequence (Q03181 147-441): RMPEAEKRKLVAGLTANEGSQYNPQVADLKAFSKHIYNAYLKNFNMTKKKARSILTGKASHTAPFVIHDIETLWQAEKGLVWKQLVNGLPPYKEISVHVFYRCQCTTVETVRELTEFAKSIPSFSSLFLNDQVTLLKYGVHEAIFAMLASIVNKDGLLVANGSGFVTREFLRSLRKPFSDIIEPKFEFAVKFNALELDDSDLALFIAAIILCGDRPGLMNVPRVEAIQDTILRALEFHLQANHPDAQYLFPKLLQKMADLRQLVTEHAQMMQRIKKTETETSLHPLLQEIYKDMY
Put plainly: Transactivation assay (PPARδ GAL4 assay) in transiently transfected HEK293 cells. The format is cell-based. The note with it: luciferase reporter, Table 1. The procedure: Compounds were screened for their functional potency in transiently transfected HEK293 cells for their ability to activate PPAR subtypes. Cells were cultured in DMEM (Invitrogen) supplemented with 10% foetal calf serum, glutamine, penicillin and streptomycin and plated at 10 000 cells/well of a 96-well solid white plate and incubated at 37° C./5% CO2 for 24 hours. Media was removed and the cells washed with PBS. Cells were then transiently transfected using Fugene (Roche) with 50 ng pFACMV-PPARδ (plasmid encoding amino acids 1-147 of the GAL4 DNA binding domain, fused to amino acids 147-441 of PPARδ downstream of CMV promoter) and 250 ng pFR-Luc (reporter plasmid containing 5×GAL4 response elements upstream of a luciferase gene), using a ratio of 3:1 Fugene:DNA. 100 μl of this transfection mixture in DMEM (without foetal calf serum) was added to each well, and the incubation continued for a further 24 hours. The cells are then again washed with PBS prior to the addition of 100 μl reduced serum medium (OptiMEM; Invitrogen). Compounds were added (10 μl in 2% DMSO in OptiMEM) to achieve final concentrations between 0-30 μM. The cells were then returned to the incubator for a further 24 hours. 100 μl of luciferase reagent (Bright Glo, Promega) was added directly to each well, and the luminescence determined using a suitable luminometer.
To measure the selectivity of compounds, their ability to transactivate GAL4 fusions of PPARα LBD and PPARγ LBD was determined. The activity of compounds was expressed as a percentage relative to control compounds: PPARγ rosiglitazone (BRL 49653), PPARδ GW501516 (11) or PPARα KCL1999000269 (12). EC50 values were calculated by fitting of the data to a sigmoidal dose response curve.
For the molecule `CCc1cc(C(=O)c2ccc(-c3ccccc3)cc2)c(NC(=O)CSCC(=O)O)s1` [Example 36, {[3-(Biphenyl-4-carbonyl)-5-ethyl-thiophen-2-ylcarbamoyl]-methylsulfanyl}-acetic acid], the EC50 was < 100 nM.
On the same count and under the same terms, under `CCc1cc(C(=O)c2ccc(OC(F)(F)F)cc2)c(NC(=O)CC(C)(C)CC(=O)O)s1` [Example 3, 4-[5-Ethyl-3-(4-trifluoromethoxy-benzoyl)-thiophen-2-ylcarbamoyl]-3,3-dimethyl-butylic acid] stands 100 to 1000 nM; under `CCc1cc(C(=O)c2cccc(Cl)c2)c(NC(=O)CSCC(=O)O)s1` [Example 27, {[3-(3-Chloro-benzoyl)-5-ethyl-thiophen-2-ylcarbamoyl]-methylsulfanyl}-acetic acid], 100 to 1000 nM.
The molecule `CCc1cc(C(=O)c2ccccc2)c(NC(=O)CSC(C)(C)C(=O)O)s1` [Example 15, 2-[(3-Benzoyl-5-ethyl-thiophen-2-ylcarbamoyl)-methylsulfanyl]-2-methyl-propionic acid] gave an EC50 of 1000 to 30000 nM.
Same read-out and setting: under `CCc1cc(C(=O)c2cccc(Br)c2)c(NC(=O)CSCC(=O)O)s1` [Example 34, {[3-(3-Bromo-benzoyl)-5-ethyl-thiophen-2-ylcarbamoyl]-methylsulfanyl}-acetic acid] stands 100 to 1000 nM; under `CCc1cc(C(=O)c2ccc(OC(C)C)nc2)c(NC(=O)CSCC(=O)O)s1` [Example 58, {[5-Ethyl-3-(6-isopropoxy-pyridine-3-carbonyl)-thiophen-2-ylcarbamoyl]-methylsulfanyl}-acetic acid], 100 to 1000 nM; under `CCc1cc(C(=O)c2ccc(Cl)cc2)c(NC(=O)CSC(C)(C)C(=O)O)s1` [Example 24, 2-{[3-(4-Chloro-benzoyl)-5-ethyl-thiophen-2-ylcarbamoyl]-methylsulfanyl}-2-methyl-propionic acid], 100 to 1000 nM.
Same read-out and setting: under `CC(C)(NCC(=O)Nc1sc(Cl)cc1C(=O)c1ccc(OC(F)(F)F)cc1)C(=O)O` [Example 86, 2-({[5-Chloro-3-(4-trifluoromethoxy-benzoyl)-thiophen-2-ylcarbamoyl]-methyl}-amino)-2-methyl-propionic acid] stands 100 to 1000 nM; under `CCc1cc(C(=O)c2ccc(C)c(C)c2)c(NC(=O)CC(C)(C)CC(=O)O)s1` [Example 52, 4-[3-(3,4-Dimethyl-benzoyl)-5-ethyl-thiophen-2-ylcarbamoyl]-3,3-dimethyl-butyric acid], 1000 to 30000 nM.
On the same count and under the same terms, under `CCc1cc(C(=O)c2ccc(Cl)cc2)c(NC(=O)CC2(CC(=O)O)CCCC2)s1` [Example 26, (1-{[3-(4-Chloro-benzoyl)-5-ethyl-thiophen-2-ylcarbamoyl]-methyl}-cyclopentyl)-acetic acid] stands 1000 to 30000 nM; under `CCc1cc(C(=O)c2ccc(OC(F)(F)F)cc2)c(NC(=O)CSCC(=O)O)s1` [Example 1, {[5-Ethyl-3-(4-trifluoromethoxy-benzoyl)-thiophen-2-ylcarbamoyl]-methylsulfanyl}-acetic acid], < 100 nM.
Consider `CCc1cc(C(=O)c2ccc(OC(F)(F)F)cc2)c(NC(=O)CN[C@@H](C(=O)O)C(C)C)s1` [Example 78, (R)-2-({[5-Ethyl-3-(4-trifluoromethoxy-benzoyl)-thiophen-2-ylcarbamoyl]-methyl}-amino)-3-methyl-butyric acid], for which the EC50 is 1000 to 30000 nM.
For the molecule `CCc1cc(C(=O)c2ccc(-c3ccc(F)cc3)cc2)c(NC(=O)CSCC(=O)O)s1` [Example 40, {[5-Ethyl-3-(4′-fluoro-biphenyl-4-carbonyl)-thiophen-2-ylcarbamoyl]-methylsulfanyl}-acetic acid], the EC50 was < 100 nM.
On to `CCc1cc(C(=O)c2ccc(OC(F)(F)F)cc2)c(NC(=O)CSC(C)(C)C(=O)O)s1` [Example 2, 2-{[5-Ethyl-3-(4-trifluoromethoxy-benzoyl)-thiophen-2-ylcarbamoyl]-methylsulfanyl}-2-methyl-propionic acid], for which the EC50 was < 100 nM.
Take `CCc1cc(C(=O)c2ccc(OC(F)(F)F)cc2)c(NC(=O)CNC2(C(=O)O)CC2)s1` [Example 82, 1-({[5-Ethyl-3-(4-trifluoromethoxy-benzoyl)-thiophen-2-ylcarbamoyl]-methyl}-amino)-cyclopropanecarboxylic acid]: the EC50 is 1000 to 30000 nM.

The test is the same for the next values; noted with them: luciferase reporter, Table 2.
Take `CCc1cc(C(=O)c2ccc(OC(F)(F)F)cc2)c(NC(=O)C(CC)SCC(=O)O)s1` (stereo not shown) [Example 109, {1-[5-Ethyl-3-(4-trifluoromethoxy-benzoyl)-thiophen-2-ylcarbamoyl]-propylsulfanyl}-acetic acid]: the EC50 was < 100 nM.
Still for that read-out and setting: under `CCc1cc(C(=O)c2ccc(OC(F)(F)F)cc2)c(NC(=O)CN2[C@H](C)CC[C@@H]2C(=O)O)s1` (relative stereo) [Example 178, (2R*,5R*)-1-{[5-Ethyl-3-(4-trifluoromethoxy-benzoyl)-thiophen-2-ylcarbamoyl]-methyl}-5-methyl-pyrrolidine-2-carboxylic acid] stands 1000 to 30000 nM.
On to `CCc1cc(C(=O)c2ccc(OC(F)(F)F)cc2)c(NC(=O)CN(C)C2(C(=O)O)CC2)s1` [Example 197, 1-({[5-Ethyl-3-(4-trifluoromethoxy-benzoyl)-thiophen-2-ylcarbamoyl]-methyl}-methyl-amino)-cyclopropanecarboxylic acid], for which the concentration for a half-maximal effect (EC50) was in the range of 100 to 1000 nM.
The same measure, in the same setting: under `CCc1cc(C(=O)c2ccc(OC(F)(F)F)cc2)c(NC(=O)CN2[C@@H](C(=O)O)CC[C@@H]2c2ccccc2)s1` [Example 184, (2R,5R)-1-{[5-Ethyl-3-(4-trifluoromethoxy-benzoyl)-thiophen-2-ylcarbamoyl]-methyl}-5-phenyl-pyrrolidine-2-carboxylic acid] stands < 100 nM; under `CCc1cc(C(=O)c2nc3cc(Cl)ccc3s2)c(NC(=O)CSCC(=O)O)s1` [Example 155, {[3-(5-Chloro-benzothiazole-2-carbonyl)-5-ethyl-thiophen-2-ylcarbamoyl]-methylsulfanyl}-acetic acid], 100 to 1000 nM.
The same measure, in the same setting: under `CCc1cc(C(=O)c2ccc(OC(F)(F)F)cc2)c(NC(=O)C(CC)SC(C)C(=O)O)s1` (stereo not shown) [Example 110, 2-{1-[5-Ethyl-3-(4-trifluoromethoxy-benzoyl)-thiophen-2-ylcarbamoyl]-propylsulfanyl}-propionic acid] stands < 100 nM; under `CCC(C)c1cc(C(=O)c2ccc(OC(F)(F)F)cc2)c(NC(=O)CSCC(=O)O)s1` (stereo not shown) [Example 134, {[5-sec-Butyl-3-(4-trifluoromethoxy-benzoyl)-thiophen-2-ylcarbamoyl]-methylsulfanyl}-acetic acid], 100 to 1000 nM.
On to `CCc1cc(C(=O)c2ccc(OC(F)(F)F)cc2)c(NC(=O)C2CCN(CC(=O)O)CC2)s1` [Example 177, {4-[5-Ethyl-3-(4-trifluoromethoxy-benzoyl)-thiophen-2-ylcarbamoyl]-piperidin-1-yl}-acetic acid], for which the EC50 is 1000 to 30000 nM.
As for `CCc1cc(C(=O)c2ccc(OC(F)(F)F)cc2)c(NC(=O)CCN2CCC[C@@H]2C(=O)O)s1` [Example 193, (R)-1-{2-[5-Ethyl-3-(4-trifluoromethoxy-benzoyl)-thiophen-2-ylcarbamoyl]-ethyl}-pyrrolidine-2-carboxylic acid], the EC50 lay within 100 to 1000 nM.
The same measure, in the same setting: under `CCc1cc(C(=O)c2cc3cc(OC(F)(F)F)ccc3n2C)c(NC(=O)CSCC(=O)O)s1` [Example 150, {[5-Ethyl-3-(1-methyl-5-trifluoromethoxy-1H-indole-2-carbonyl)-thiophen-2-ylcarbamoyl]-methylsulfanyl}-acetic acid] stands < 100 nM; under `CCc1cc(C(=O)c2ccc(OC(F)(F)F)cc2)c(NC(=O)C(SCC(=O)O)c2ccccc2)s1` (stereo not shown) [Example 113, {[5-Ethyl-3-(4-trifluoromethoxy-benzoyl)-thiophen-2-ylcarbamoyl]-phenyl-methylsulfanyl}-acetic acid], < 100 nM.
As for `CCc1cc(C(=O)c2ccc(OC(F)(F)F)cc2)c(NC(=O)CSC(CC)C(=O)O)s1` (stereo not shown) [Example 127, 2-{[5-Ethyl-3-(4-trifluoromethoxy-benzoyl)-thiophen-2-ylcarbamoyl]-methylsulfanyl}-butyric acid], the EC50 was < 100 nM.
As for `CCc1cc(C(=O)c2cn(C)c3ccc(Cl)cc23)c(NC(=O)CSCC(=O)O)s1` [Example 157, {[3-(5-Chloro-1-methyl-1H-indole-3-carbonyl)-5-ethyl-thiophen-2-ylcarbamoyl]-methylsulfanyl}-acetic acid], the EC50 lay within 100 to 1000 nM.
